Values joined by “and” are separate entries in the source; they are usually repeats but may differ in a detail not shown here. Equal entries are not always repeated. Where two headings read alike, the source gives them in different places.
Columns and labels:
Mycobacterium abscessus = assay type: in vivo, human; conditions: vertebral osteomyelitis patient
Protocol: Debridement was accomplished after one year of infection with placement of hardware. […] The amikacin was later stopped due to renal damage. Linezolid and azithromycin were later added to the treatment regimen. The organism was determined to be resistant to moxifloxacin.
The patient presented later with a new vertebral osteomyelitis just above the site of the old infection. A biopsy was performed and it was determined that no additional debridement was needed. […] Tigecycline was administered up to MIC 0.25 micrograms/ml. The patient's white blood cell count was normal while hypogammaglobulinemia was present and lymphocytic function decreased. The patient had also been under treatment with IL-12, but IL-12 was held during antibiotic treatment.

[1] = Tigecycline in human serum, tissue and synovial fluid after one intravenous 100 mg dose (LC/MS/MS); assay type: in vivo; parameters: Calculated Concentration, serum: unit not given here
Protocol: The objective of this study was to determine the tissue and corresponding serum concentration of tigecycline at selected time points in lung, colon, gallbladder tissues, bone, and synovial fluid. Samples were taken from subjects scheduled for lung, colon, gallbladder, or bone surgery, or a lumbar puncture who were given a single dose of tigecycline administered intravenously.
Pre-specified tissue/fluid sampling of either lung, colon, gallbladder, bone, and synovial fluid was performed on each subject during surgery at 4 hours, 8 hours, 12 hours, or 24 hours after the start of a single dose of 100 mg tigecycline administered over 30 minutes. Serum was collected from all subjects at hour 0 (before the first dose), approximately 30 minutes (end of infusion), and at the time corresponding to tissue/fluid collections. Tissue and serum concentration was determined according to the method set forth below.
Samples of human serum and tissue from study subjects who had received tigecycline were analyzed according to methods that had been previously validated. Serum samples and synovial fluid (0.2 ml) were mixed with 0.6 ml internal standard in acetonitrile, the supernatant evaporated to dryness and the residue reconstituted in 200 microliters mobile phase. Aliquots (10 microliters) of the reconstituted samples were injected into an LC/MS/MS.
The data was acquired by and analyzed on PE SCIEX “Analyst” version 1.3 software. Linear regression, with 1/x^2 weighting was used to obtain the best fit of the data for the calibration curves. The lower limit of quantitation was 10 ng/ml for serum and synovial fluid samples, 10 ng/g for the colon and gall bladder samples, and 30 ng/g for the bone samples.
Tigecycline was measured in human serum using an LC/MS/MS method. The primary stock solution of tigecycline was prepared at 1 mg/ml by dissolving in methanol. A secondary stock solution was prepared from the primary stock solution by diluting to a concentration of approximately 40,000 ng/ml with acetonitrile. The stock solutions were stored at −20° C. when not in use. A primary internal standard solution of tert-butyl-d9-tigecycline was prepared at a concentration of 1 mg/ml in methanol. A secondary internal standard stock solution was prepared by diluting the primary stock solution to a concentration of 100 micrograms/ml in acetonitrile with 0.1% trifluoroacetate added. The primary and secondary stock solutions were stored at −20° C. The working internal standard was prepared by diluting to volume with acetonitrile/0.1% trifluoroacetate. The working internal standard was stored at 4° C. when not in use. On the day of analysis, the secondary stock solution was brought to room temperature before use to prepared the standard curve working solutions. The standard curve was prepared at approximately 2000, 1600, 1000, 500, 250, 100, 50, 20, and 10 ng/ml by serial dilution in blank human serum.
The extraction procedure was as follows: to 200 microliters of calibrator, quality control or sample was added 600 microliters of internal standard working solution and vortex mixed. The samples were centrifuged for 10 minutes at 13000 rpm to separate the layers and the supernatant was transferred to a culture tube. The samples were evaporated to dryness in a Speed Vac. The residues were reconstituted by sonicating in 200 microliters of mobile phase and 10 microliters was injected in the LC/MS/MS. […]

[2] = for ratio of AUC in tissue to AUC in plasma: bone, bone marrow, salivary gland, thyroid, spleen, kidney (each)
Protocol: Sprague-Dawley rats (18 males) were given carbon-14 tigecycline at a dosage of 3 mg/kg by 30-minute infusion. Concentrations or radioactivity were determined in tissues of 3 rats/time point at the end of the infusion and at 1, 8, 24, 72, and 168 hours after the end of infusion.

SMILES | clinical outcome (Mycobacterium abscessus) | Calculated Concentration, tissue ([1]; Lung, 4 to 24 hours after dose) | concentration at 8 h ([1]; human, synovial fluid, intravenous, 100 mg, synovial fluid, 8 Hour, read-out: Calculated Concentration, synovial fluid) | concentration at 12 h ([1]; human, synovial fluid, intravenous, 100 mg, synovial fluid, 12 Hour, read-out: Calculated Concentration, synovial fluid) | Calculated Concentration, serum ([1]; serum, 8 Hour) | Calculated Concentration, synovial fluid ([1]; synovial fluid, 12 Hour) | ratio of AUC in tissue to AUC in plasma [2] | ratio of AUC in tissue to AUC in plasma ([2]; listed as carbon-14 tigecycline) | ratio of AUC in lung to AUC in plasma ([2]; lung)
CN(C)c1cc(NC(=O)CNC(C)(C)C)c(O)c2c1C[C@H]1C[C@H]3[C@H](N(C)C)C(O)=C(C(N)=O)C(=O)[C@@]3(O)C(O)=C1C2=O [Tigecycline] | doing well a year after the treatment | 653 n2/2 | 70.9 ng/mL | 111 ng/mL | 198 {n&mll and 186 {n&mll and 133 {n&mll and 206 {n&mll | 65.0 ng/mL and 65.7 ng/mL and 62.8 ng/mL |  |  | 
CN(C)c1cc(NC(=O)CNC(C)(C)C)c(O)c2c1C[C@H]1C[C@H]3[C@H](N(C)C)C(O)=C(C(N)=O)C(=O)[C@@]3(O)C(O)=C1C2=O [[^14C]-Tigecycline] |  |  |  |  |  |  | greater than 10 | > 10 | 4.4

From patent US20050148553A1, “Use of tigecycline, alone, or in combination with rifampin to treat osteomyelitis and/or septic arthritis” (priority 2003, published 2005)
